Assay results reported in US4603123A, “Compounds having antiinflammatory activity, obtained by complexation of piroxican with β-cyclodextrin, and pharmaceutical compositions containing them” (priority 1984, dated 1986).
Values after ≈ are worked out from the molar mass of the structure shown. Read-outs that look alike come from different tables or passages of the source.

How the values were obtained:
[1] = background; cited from earlier work
[2] = Plasma kinetics of piroxicam in the dog after oral administration; set-up: species or system Beagle dogs; conditions: in vivo, 10 mg/kg of active ingredient
Procedure: The dogs were kept at constant temperature and fastened at least for 17 hours before the beginning of the experiment. Water was available ad libitum.
The two substances to be investigated were orally administered at a dosage corresponding to 10 mg/kg of active ingredient, according to a crossover scheme. The determination of the plasma concentrations of the active ingredient, at a different time intervals since the administration, was carried out by High Pressure Liquid Chromatography (HPLC).

[3] = Dissolution test in water, Dissolution Tester, 25° C.
Procedure: 7.5 Grams of piroxicam/β-cyclodextrin were poured into 150 ml of water at 25° C. under stirring. At predetermined time intervals, samples of 5 ml of suspension were collected and filtered through 0.2μ. […] were diluted 1 to 500 with 0.1 N NaOH in methanol immediately after the filtration. The whole was again filtered through paper.
The amount of piroxicam in the solution was spectrophotometrically determined at 358 nm against a solution of 0.1 N NaOH in methanol.

[4] = tested on: phenylquinone induced writhing; assay: Phenylquinone induced writhing test (kinetic of the analgesic activity); assay type: in vivo, female NMRI mice; conditions: mouse, oral, 0.5 mg/kg of active substance
Procedure: The employed experimental model is a slight modification of that described by Siegmund, J. Pharm. Exptl. Ther., 119, 184, 1957.
Female NMRI mice, housed under standard conditions, fastened for 18 hours, were employed as the test animals. Water was available ad libitum.
The compounds under study were orally administered by oesophageal gavage, suspended in an aqueous solution containing 0.5% of carboxymethylcellulose, at a concentration corresponding to 0.5 mg/kg of active substance (piroxicam).

[5] = tested on: carrageenin induced oedema; assay: Carrageenin induced oedema test in rats (antiinflammatory activity); assay type: in vivo, male Crl:CD(SD) rats; conditions: oral, rat
Procedure: The antiinflammatory activity was determined by means of the carrageenin induced oedema test, according to the methodology reported by C. A. Winter et al in Proc. Soc. Exptl. […] As the test animals, male Crl:CD(SD) rats, weighing 150-170 g, were employed. The animals were housed under standard conditions and fastened for 18 hours before the beginning of the experiment. Water was available ad libitum.
The obtained results were expressed both as ED50 values, determined in correspondence of the activity peak on the regression line log. of the dosage-% inhibition of the oedema, and as ED30 values, calculated on the regression lines log. of the dosage-% inhibition of the oedema over the controls, determined as the mean value of AUC (area under Curve representing the development of the paw volume in the time).
In addition, it was determined the kinetic of the activity of the two formulations under investigation, by calculating the ED30 values at 2, 3, 4 and 6 hours since the carrageenin injection.

[6] = tested on: gastrointestinal mucosa; conditions: background; cited from earlier work
[7] = Plasma kinetics of piroxicam in the rabbit after oral administration; assay type: in vivo, male New Zealand White rabbits
Procedure: For these investigations, male New Zealand White rabbits, weighing 2.5-3.0 kg were employed. The animals were kept at constant temperature and fastened for the 17 hours preceeding the experiments. Water was given ad libitum. […] The determination of the plasma levels of the active principle, at the different times since the administration, was carried out by High Pressure Liquid Chromatography (HPLC).

[8] = Gastrolesive action in rats and therapeutic index UD0/ED30; conditions: in vivo, rat
Procedure: The gastrolesive action was tested on rats fastened for 18 hours, through macroscopical examination of the gastric mucosa, 5 hours after the administration of the substances under investigation. For each treatment, the regression lines log. of the dosage-mm of ulceration (single values for each animal) were determined. These lines allowed to calculate, for each compound, the UD0 values i.e., the maximum dosages at which no lesions are observed.
Finally, it was also determined the therapeutic index of the new compound piroxicam/β-cyclodextrin, in comparison with piroxicam. Said index was expressed as the ratio UD0 /ED30 wherein UD0 and ED30 are as above defined.

[9] = plasma, 10 mg/kg of active ingredient, mean

CN1C(C(=O)Nc2ccccn2)=C(O)c2ccccc2S1(=O)=O [Piroxicam, 4-hydroxy-2-methyl-N-2-pyridyl-2H-1,2-benzothiazine-3-carboxamide-1,1-dioxide]
solubility in water [1]: practically insoluble in water | Tmax [2]: 1.8 h | concentration at 0.25 h ([2]; 0.25 h, mean): 1000 ng/mL | concentration at 0.5 h ([2]; 0.50 h, mean): 2800 ng/mL | concentration at 1 h ([2]; 1 h, mean): 12700 ng/mL | concentration at 2 h ([2]; 2 h, mean): 19400 ng/mL | concentration at 4 h ([2]; 4 h, mean): 18900 ng/mL | concentration at 8 h ([2]; 8 h, mean): 14200 ng/mL | concentration at 24 h ([2]; 24 h, mean): 11500 ng/mL | concentration at 48 h ([2]; 48 h, mean): 9200 ng/mL | concentration at 72 h ([2]; 72 h, mean): 3000 ng/mL | AUC(0-t) at 2 h ([2]; mean): 20400 ng·h/mL | AUC(0-t) at 72 h ([2]; mean): 724000 ng·h/mL | Cmax ([2]; mean): 20000 ng/mL | solubility at 0.5 h [3]: 111 µg/mL (≈ 335 µM) | time of the activity peak (analgesic) [4]: 20 min | percentage of the maximum evidenced inhibition (writhing) at 5 minutes ([4]; 5 minutes after the administration): 78% | ED30 ([5]; Rat2, 2 h since carrageenin injection, read-out: ED30 at 2 h): 0.6 mg/kg | ED30 ([5]; 3 h since carrageenin injection, read-out: ED30 at 3 h): 1.6 mg/kg | ED30 ([5]; 4 h since carrageenin injection, read-out: ED30 at 4 h): 3.1 mg/kg | ED30 ([5]; 6 h since carrageenin injection, read-out: ED30 at 6 h): 9.7 mg/kg | ED30 ([5]; AUC of paw volume in time, dosage as piroxicam, read-out: Activity on AUC ED30): 2.5 mg/kg | ED50 ([5]; at the activity peak, dosage as piroxicam): 2.3 mg/kg | effects on the gastrointestinal mucosa [6]: responsible of lesive effects on the gastrointestinal mucosa | bioavailability [7]: almost complete bioavailability | Tmax ([7]; plasma, 10 mg/kg of active ingredient): 2.3 h | concentration at 0.5 h ([7]; plasma, 10 mg/kg of active ingredient, 0.50 h, mean): 4300 ng/mL | concentration at 1 h ([7]; plasma, 10 mg/kg of active ingredient, 1 h, mean): 7400 ng/mL | concentration at 2 h ([7]; plasma, 10 mg/kg of active ingredient, 2 h, mean): 10900 ng/mL | concentration at 4 h ([7]; plasma, 10 mg/kg of active ingredient, 4 h, mean): 10100 ng/mL | concentration at 8 h ([7]; plasma, 10 mg/kg of active ingredient, 8 h, mean): 6500 ng/mL | concentration at 24 h ([7]; plasma, 10 mg/kg of active ingredient, 24 h, mean): 300 ng/mL | AUC(0-t) at 2 h [7, 9]: 13200 ng·h/mL | AUC(0-t) at 24 h [7, 9]: 121000 ng·h/mL | Cmax [7, 9]: 11700 ng/mL | NOAEL at 5 h ([8]; 5 hours after administration, dosage as piroxicam, read-out: Gastrolesive activity UD0 (maximum dosage at which no lesions are observed)): 1.1 mg/kg | selectivity ratio ([8]; piroxicam = 1, read-out: Relative therapeutic index): 1 | selectivity ratio ([8]; read-out: Absolute therapeutic index (UD0/ED30)): 0.44
